Data: US20120116027A1, “PROCESS FOR THE PURIFICATION OF HUMAN GROWTH HORMONE POLYPEPTIDES USING AFFINITY RESINS COMPRISING SPECIFIC LIGANDS” (priority 2008, published 2012)
Where a SMILES comes first, the peptide text is derived from it. [ ]: non-standard residue; d: D form. The star is where a group is joined. X1 = O=C(c1ccc2ccccc2c1O)*; Dap = NC[CH](N)C(=O)O; Aib = CC(C)(N)C(=O)O

How the values were obtained:
wild type hGH = wild type hGH (Homo sapiens, UniProt P01241); assay: Binding capacity for wild type hGH of ligands synthesized on Fractogel Amino (1 mL columns); settings: ligand on Fractogel Amino; for Measured binding capacity (mg hGH/mL resin): load 5 mg/mL hGH in 25 mM Tris-HCl pH 7.50, 0.5 mL/min, elution gradient 1M NaCl/25 mM Tris pH 7.5
Protocol: (§1) were stepwise synthesized on Fractogel Amino (Merck) with amine loading 0.16 mmol/g and particle size 40-90 μm. The resins were washed thoroughly with DMF, DCM, and ethanol and packed in 1 mL columns and washed with 0.2 M NaOH and then with 20% ethanol, and equilibrated with 25 mM Tris-HCl at pH=7.50 (buffer A).
Binding capacity for wild type hGH was measured for each resin sample by • a) loading the column with a 5 mg/mL solution of hGH in buffer A at a flow rate of 0.5 mL/min, • b) washing the column with at least 10 column volumes of buffer A until a steady low UV absorbance of the buffer leaving the column was observed, • c) eluting the protein by applying a gradient of 1M NaCl/25 mM Tris at pH=7.5 (buffer B) • d) cleaning the column with 0.2 M NaOH, then with buffer B, and then with buffer A.
The binding capacity was calculated by integrating the UV signal during step (c) and indicated for each ligand above.

hGH [1] = biological target: T1, hGH (Homo sapiens, UniProt P01241); assay: Resin selectivity test with hGH fermentation broth, judged by SDS page gels of the eluate; settings: ligand on Fractogel Amino, hGH fermentation broth diluted five times with buffer A
T1 construct: made in house; host or cells: E. coli
Protocol: as §1
Resin selectivity was tested by • (a) loading the column with hGH fermentation broth diluted five times with buffer A • (b) washing the column with at least 10 column volumes of buffer A until a steady low UV absorbance of the buffer leaving the column was observed, • (c) eluting the protein by applying a gradient of buffer B • (d) cleaning the column with 0.2 M NaOH, then with buffer B, and then with buffer A.
“Observed selectivity” was judged by SDS page gels of the eluate […] and indicated for each ligand above. An example of a resin with “very good” selectivity (ligand L11 on Fractogel) and an example of a resin with “moderate” selectivity (ligand L6 on Fractogel) are given in FIG. 3.

hGH [2] = biological target: T1, hGH; assay: Evaluation of ligand synthesized directly on Fractogel in 5 mL scale (capacity, recovery, purity); format: binding; settings: load 50 mM BisTris pH 6.25, elution 50 mM BisTris pH 8.00 gradient; for Dynamic 10% BT capacity for micro-filtrate hGH / Dynamic 10% BT capacity for pure hGH: 2 mL/min
Protocol: Ligand L14 from Example 1 was synthesized directly on Fractogel. The resin was evaluated in 5 mL scale.
Load buffer: 50 mM BisTris at pH 6.25
Elution buffer: 50 mM BisTris at pH 8.00 gradient
Temperature: 15° C. (20° measured by Äkta)
Ligand L16 from Example 1 was synthesized directly on Fractogel Amino. This resin was evaluated in 5 mL scale.

hGH [3] = biological target: T1, hGH; assay: Affinity purification of hGH from E. coli micro-filtrate with ligand L10 resin (purity and recovery); settings: load 50 mM BisTris-HCl pH 6.25
Protocol: (§2) Ligand L10 from Example 1 was synthesized step-wise on Fractogel Amino M (Supplied by Merck KgaA), and the resulting affinity resin was packed in Tricorn 5/50, 1 mL (GE Healthcare).
(§3) hGH micro-filtrate buffer: 2.61 mg/mL hGH E. coli micro-filtrate from hGH harvest. A frozen 15 mL sample was thawed at room temperature and filtered using a syringe-driven filter ([…]). Diluted to 0.52 mg hGH/mL with Buffer A.
An elution buffer of 200 mM Tris-HCl, pH 8.00, 1 M NaCl, 30% propylene glycol results in high recovery of hGH. This elution buffer and the aforementioned 50 mM BisTris-HCl, pH 6.5 load buffer was used. The column was overloaded with hGH. The results from an experiment using these conditions are shown below:
The loading buffer was changed to 50 mM BisTris-HCl at pH 6.25 and different elution buffers at pH 7.25, 7.50 and 8.00 were tested.
Chromatograms and gels are shown in FIG. 8 for the run with the following conditions: Load buffer: 50 mM BisTris at pH 6.25 and Elution buffer: 50 mM BisTris at pH 8.00

hGH [4] = assay: Dynamic 10% BT capacity of ligand L10 on Fractogel Amino M; format: binding, human; settings: load 50 mM BisTris-HCl pH 6.50, 0.5 mL/min (150 cm/h), 15° C.
Protocol: as §2
(§4) hGH standard: hGH was dissolved to 20 mg/mL in freshly made 50 mM NH41-1CO3, then diluted to 2 or 3.3 mg/mL with Buffer A (50 mM Tris-HCl, pH=7.50, T=15° C. (20° C. in Äkta)).
as §3
(§5) Buffer A1: 50 mM BisTris-HCl, pH=6.50, T=15° C. (20° C. in Äkta), flow 0.5 mL/min (150 cm/h)
(§6) Buffer Z1: 25 mM Tris-HCl, 1M NaCl, pH=7.50, T=15° C. (20° C. in Äkta), flow 0.5 mL/min (150 cm/h)

hGH [5] = biological target: T1, hGH; assay: as above; format: binding; settings: load 50 mM BisTris-HCl pH 6.50, 0.5 mL/min (150 cm/h), 15° C.
Protocol: as §2, §4, §3, §5, §6

Sequence of wild type hGH (P01241 27-217): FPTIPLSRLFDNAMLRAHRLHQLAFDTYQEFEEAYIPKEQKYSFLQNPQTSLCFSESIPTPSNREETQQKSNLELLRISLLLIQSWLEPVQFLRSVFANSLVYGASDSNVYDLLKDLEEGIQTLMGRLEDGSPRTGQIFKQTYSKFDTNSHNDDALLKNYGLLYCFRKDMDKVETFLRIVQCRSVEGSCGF
T1 sequence (P01241 27-217): as above

Compound | Measured binding capacity (mg hGH/mL resin) (wild type hGH) | Observed selectivity (hGH [1]) | also measured
O=C(NC[C@H](NC(=O)[C@H]1CCCN1C(=O)[C@H]1CCCN1)C(=O)O)c1c2c(nc3ccccc13)CCCC2 [L12] | 2 mg hGH/mL resin | Good | –
Cc1nc2ccccn2c1C(=O)NC[C@H](NC(=O)[C@H](CCCNC(=N)N)NC(=O)[C@@H](N)Cc1ccccc1)C(=O)O [L15] | >5 mg hGH/mL resin | Good | –
CC[C@@H](C)[C@H](N)C(=O)N[C@@H](CCCCN)C(=O)N[C@@H](CNC(=O)c1c(C)nc2ccccn12)C(=O)O [L16] | >10 mg hGH/mL resin | Moderate | Purity (hGH [2]): 70%; Dynamic 10% BT capacity for micro-filtrate hGH (hGH [2]): 5.7 mg/mL; Dynamic 10% BT capacity for pure hGH (hGH [2]): 11.9 mg/mL
C[C@@H](O)[C@H](NC(=O)[C@@H](N)CCCNC(=N)N)C(=O)N[C@@H](CNC(=O)c1c2c(nc3ccccc13)CCCC2)C(=O)O [L13] | >10 mg hGH/mL resin | Moderate | –
CC(O)C(N)C(=O)NC(CC(=O)O)C(=O)NC(CNC(=O)c1ccc2nccnc2c1)C(=O)O (stereo not shown) [L17] | <0.5 mg hGH/mL resin | – | –
N=C(N)NCCC[C@H](NC(=O)[C@@H](N)Cc1ccccc1)C(=O)N[C@@H](CNC(=O)C1c2ccccc2Oc2ccccc21)C(=O)O [L2] | 7 mg hGH/mL resin | Good | –
N=C(N)NCCC[C@H](N)C(=O)N[C@@H](Cc1ccccc1)C(=O)N[C@@H](CNC(=O)C1CC(=O)c2ccccc21)C(=O)O (stereo partly shown) [L9] | 10 mg hGH/mL resin | Good | –
NCCCC[C@H](NC(=O)[C@@H](N)Cc1ccccc1)C(=O)N[C@@H](CNC(=O)c1scc(S(=O)(=O)c2ccccc2)c1N)C(=O)O [L6] | 13 mg hGH/mL resin | Moderate | –
CC[C@@H](C)[C@H](NC(=O)[C@@H](N)Cc1c[nH]c2ccccc12)C(=O)N[C@@H](CNC(=O)c1scc(S(=O)(=O)c2ccccc2)c1N)C(=O)O [L7] | 2 mg hGH/mL resin | Good | –
N[C@@H](Cc1ccccc1)C(=O)N[C@@H](Cc1ccccc1)C(=O)N[C@@H](CNC(=O)C1c2ccccc2Oc2ccccc21)C(=O)O [L4] | 1 mg hGH/mL resin | Good | –
NCCCC[C@H](N)C(=O)N[C@@H](Cc1ccccc1)C(=O)N[C@@H](CNC(=O)c1c2c(nc3ccccc13)CCCC2)C(=O)O [L14] | >5 mg hGH/mL resin | Good | Purity (hGH [2]): 71%; Dynamic 10% BT capacity for micro-filtrate hGH (hGH [2]): 6.7 mg/mL; Dynamic 10% BT capacity for pure hGH (hGH [2]): 16.3 mg/mL
CC[C@H](C)[C@H](N)C(=O)N[C@@H](Cc1ccc(O)cc1)C(=O)N[C@@H](CNC(=O)c1scc(S(=O)(=O)c2ccccc2)c1N)C(=O)O [L8] | 6 mg hGH/mL resin | Moderate | –
CC[C@H](C)[C@H](N)C(=O)N[C@@H](Cc1ccccc1)C(=O)N[C@@H](CNC(=O)c1c2c(nc3ccccc13)CCCC2)C(=O)O [L10] | 3 mg hGH/mL resin | Very good | Purity of eluate (hGH [3]; Elution pH 7.25): 91%; Purity of eluate (hGH [3]; Elution pH 7.50): 85%; Purity of eluate (hGH [3]; Elution pH 8.00): 85%; dynamic 10% BT capacity for hGH micro-filtrate (hGH [4]): 3.22 mg/mL; Dynamic 10% BT capacity (purified hGH) (hGH [5]): 6.7 mg/mL
N[C@@H](Cc1ccccc1)C(=O)N[C@@H](Cc1ccccc1)C(=O)N[C@@H](CNC(=O)c1c2c(nc3ccccc13)CCCC2)C(=O)O [L11] | 2 mg hGH/mL resin | Very good | –
Cc1ccc([N+](=O)[O-])c(C(=O)NCC(NC(=O)C(Cc2c[nH]cn2)NC(=O)C(N)CC(=O)O)C(=O)O)c1 (stereo not shown) [L18] | <0.5 mg hGH/mL resin | – | –
N=C(N)NCCC[C@H](N)C(=O)N[C@@H](Cc1ccc(O)cc1)C(=O)N[C@@H](CNC(=O)C1c2ccccc2Oc2ccccc21)C(=O)O [L1] | 14 mg hGH/mL resin | Moderate | –
N[C@@H](Cc1ccc(O)cc1)C(=O)N[C@@H](Cc1ccccc1)C(=O)N[C@@H](CNC(=O)C1c2ccccc2Oc2ccccc21)C(=O)O [L3] | 5 mg hGH/mL resin | Moderate | –
CC(C)(NC(=O)C(CNC(=O)c1ccc2ccccc2c1O)NC(=O)C(Cc1ccc(O)cc1)NC(=O)C(N)CCCNC(=N)N)C(=O)O (stereo not shown) [L19] (H-RY[Dap](X1)[Aib]-OH; configuration not given here) | – | – | binding capacity (wild type hGH; same procedures as Example 1): < 0.5 mg/mL
Cc1nn(-c2ccccc2)nc1C(=O)NC[C@H](NC(=O)[C@H](Cc1ccccc1)NC(=O)[C@@H](N)Cc1c[nH]c2ccccc12)C(=O)O [L5] | 2 mg hGH/mL resin | Good | –
